Test results reported in ChEMBL document CHEMBL4342414, “Activity of 2,6,9-trisubstituted purines as potent PDGFRα kinase inhibitors with antileukaemic activity” (Eur J Med Chem, 2019).
One block for each compound: values may come before it.

Legend:
[1] = tested on: EOL1; assay: Cytotoxicity against FIP1L1-PDGFRA positive human EOL-1 cells assessed as growth inhibition after 72 hrs by resazurin dye-based fluorescence analysis; assay type: functional; conditions: EOL1, 72 h
[2] = tested on: HCC827; assay: Cytotoxicity against human HCC827 cells assessed as growth inhibition after 72 hrs by resazurin dye-based fluorescence analysis; assay type: functional; conditions: HCC827, 72 h
[3] = Cytotoxicity against human CEM cells assessed as growth inhibition after 72 hrs by resazurin dye-based fluorescence analysis; assay type: cell-based; conditions: CEM (CCRF-CEM) cells
[4] = Cytotoxicity against human BJ cells assessed as growth inhibition after 72 hrs by resazurin dye-based fluorescence analysis; assay type: cell-based
[5] = Selectivity index, ratio of GI50 for human BJ cells to GI50 for FIP1L1-PDGFRA positive human EOL-1 cells after 72 hrs by resazurin dye-based fluorescence analysis
[6] = biological target: Platelet-derived growth factor receptor alpha (Homo sapiens, UniProt P16234, V561D); assay: biochemical; assay type: cell-based, Sf9
Sequence of Platelet-derived growth factor receptor alpha (P16234 24-1089 V561D limits assumed): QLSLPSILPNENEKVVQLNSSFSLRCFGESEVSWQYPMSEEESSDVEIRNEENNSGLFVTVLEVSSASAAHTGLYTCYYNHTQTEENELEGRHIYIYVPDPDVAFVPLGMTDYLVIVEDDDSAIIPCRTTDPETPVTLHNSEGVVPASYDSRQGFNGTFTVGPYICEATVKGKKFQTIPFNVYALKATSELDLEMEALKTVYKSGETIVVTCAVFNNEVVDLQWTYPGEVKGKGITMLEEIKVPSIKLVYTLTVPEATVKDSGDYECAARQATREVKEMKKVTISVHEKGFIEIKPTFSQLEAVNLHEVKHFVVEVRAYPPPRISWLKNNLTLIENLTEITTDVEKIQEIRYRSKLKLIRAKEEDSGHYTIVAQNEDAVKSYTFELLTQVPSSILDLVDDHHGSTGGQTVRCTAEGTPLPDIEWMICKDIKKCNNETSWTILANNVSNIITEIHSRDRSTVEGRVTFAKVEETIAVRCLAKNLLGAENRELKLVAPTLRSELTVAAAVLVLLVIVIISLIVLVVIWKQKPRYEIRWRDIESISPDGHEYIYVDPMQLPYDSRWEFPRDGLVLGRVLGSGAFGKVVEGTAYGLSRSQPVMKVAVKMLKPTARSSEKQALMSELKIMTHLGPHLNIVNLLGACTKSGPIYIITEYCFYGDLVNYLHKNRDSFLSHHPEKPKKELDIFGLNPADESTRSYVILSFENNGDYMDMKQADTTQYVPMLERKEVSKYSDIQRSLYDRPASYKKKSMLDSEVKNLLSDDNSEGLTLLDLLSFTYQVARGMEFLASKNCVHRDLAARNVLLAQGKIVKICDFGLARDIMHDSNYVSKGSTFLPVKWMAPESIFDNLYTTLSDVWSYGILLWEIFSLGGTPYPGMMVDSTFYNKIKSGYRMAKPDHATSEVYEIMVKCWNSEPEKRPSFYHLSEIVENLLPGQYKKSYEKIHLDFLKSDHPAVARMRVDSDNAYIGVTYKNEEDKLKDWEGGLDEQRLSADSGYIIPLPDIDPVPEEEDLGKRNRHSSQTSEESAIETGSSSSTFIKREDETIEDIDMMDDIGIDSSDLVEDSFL

[7] = tested on: K562; assay: Cytotoxicity against human K562 cells assessed as growth inhibition after 72 hrs by resazurin dye-based fluorescence analysis; assay type: functional; conditions: K562, 72 h
[8] = Chemical stability of compound; assay type: physicochemical

Compound: OCCCCNc1nc(Nc2ccc(CN3CCOCC3)cc2)c2ncn(C3CCCC3)c2n1
GI50 [1]: 0.202 µM
GI50 [2]: 2.51 µM
GI50 at 72 h [3]: 3.48 µM
GI50 at 72 h [4]: 22.8 µM

Compound: N[C@H]1CC[C@H](Nc2nc(Nc3ccccc3CN3CCOCC3)c3ncn(CCCO)c3n2)CC1
RatioGI50 [5]: >4
GI50 [1]: 10.6 µM
IC50 [6]: > 20 µM
GI50 [2]: > 40 µM
GI50 [7]: > 40 µM
GI50 at 72 h [3]: > 40 µM
GI50 at 72 h [4]: > 40 µM

Compound: N[C@H]1CC[C@H](Nc2nc(Nc3cccc(CN4CCOCC4)c3)c3ncn(C4CCC(O)C4)c3n2)CC1 (some centres not stated)
GI50 [1]: 0.009 µM
GI50 [2]: 1.67 µM
GI50 [7]: 1.85 µM
GI50 at 72 h [3]: 1.65 µM
GI50 at 72 h [4]: > 40 µM

Compound: N[C@H]1CC[C@H](Nc2nc(Nc3ccc(Oc4ncccn4)cc3)c3ncn(C4CCCC4)c3n2)CC1
GI50 [1]: 0.02 µM
GI50 [2]: 2.72 µM
GI50 [7]: 2.27 µM
GI50 at 72 h [3]: 1.15 µM
GI50 at 72 h [4]: 16.9 µM

Compound: OCCCCNc1nc(Nc2ccc(N3CCN(Cc4ccccc4)CC3)cc2)c2ncn(CCCO)c2n1
GI50 [1]: 1.01 µM
GI50 [2]: 9.8 µM
GI50 [7]: 8.67 µM
GI50 at 72 h [3]: 27.9 µM
GI50 at 72 h [4]: > 40 µM

Stability [8]: Unstable
Compound: N[C@H]1CC[C@H](Nc2nc(Nc3ccc(-n4cccn4)cc3)c3ncn(C4CCCC4)c3n2)CC1
GI50 [1]: 0.008 µM
GI50 [2]: 0.847 µM
GI50 [7]: 0.982 µM
GI50 at 72 h [3]: 0.933 µM
GI50 at 72 h [4]: 10.4 µM

Compound: Cc1ccc(NC(=O)c2ccc(CN3CCN(C)CC3)cc2)cc1Nc1nccc(-c2cccnc2)n1 [IMATINIB]
RatioGI50 [5]: >80000
GI50 [1]: < 0.0005 µM
GI50 [2]: > 40 µM
GI50 [7]: 0.73 µM
GI50 at 72 h [3]: 35.8 µM
GI50 at 72 h [4]: > 40 µM

Compound: N[C@H]1CC[C@H](Nc2nc(Nc3cccc(CN4CCOCC4)c3)c3ncn(CCCO)c3n2)CC1
GI50 [1]: 0.075 µM
GI50 [2]: 25.5 µM
GI50 [7]: > 40 µM
GI50 at 72 h [3]: > 40 µM
GI50 at 72 h [4]: > 40 µM

Compound: COc1ccccc1-c1ccc(Nc2nc(N[C@H]3CC[C@H](N)CC3)nc3c2ncn3C2CCCC2)cn1
GI50 [1]: 0.014 µM
GI50 [2]: 0.638 µM
GI50 [7]: 0.553 µM
GI50 at 72 h [3]: 0.46 µM
GI50 at 72 h [4]: 6.2 µM

Compound: N[C@H]1CC[C@H](Nc2nc(Nc3ccc(-c4ccccc4O)cc3)c3ncn(C4CCCC4)c3n2)CC1
GI50 [1]: 0.053 µM
GI50 [2]: 2.53 µM
GI50 [7]: 2.08 µM
GI50 at 72 h [3]: 1.49 µM
GI50 at 72 h [4]: 9.59 µM

Compound: NCCCCNc1nc(Nc2ccc(Oc3nccs3)cc2)c2ncn(C3CCCC3)c2n1
GI50 [1]: 0.118 µM
GI50 [2]: 6.31 µM
GI50 [7]: 5.98 µM
GI50 at 72 h [3]: 8.64 µM
GI50 at 72 h [4]: 18.6 µM

Compound: NCCCCNc1nc(Nc2ccccc2CN2CCOCC2)c2ncn(C3CCCC3)c2n1
RatioGI50 [5]: 6
GI50 [1]: 6.41 µM
IC50 [6]: > 20 µM
GI50 [2]: 26.3 µM
GI50 [7]: 12.2 µM
GI50 at 72 h [3]: 25.7 µM
GI50 at 72 h [4]: 37.5 µM

Compound: COc1ccccc1-c1ccc(Nc2nc(N[C@H]3CC[C@H](N)CC3)nc3c2ncn3C2CCCC2)cc1
GI50 [1]: 0.117 µM
GI50 [2]: 2.3 µM
GI50 [7]: 2.32 µM
GI50 at 72 h [3]: 2.35 µM
GI50 at 72 h [4]: 22.8 µM

Compound: N[C@H]1CC[C@H](Nc2nc(Nc3ccc(CN4CCOCC4)cc3)c3ncn(CCCO)c3n2)CC1
GI50 [1]: 0.164 µM
GI50 [2]: 18.4 µM
GI50 [7]: 9.93 µM
GI50 at 72 h [3]: 34.5 µM
GI50 at 72 h [4]: > 40 µM

Compound: NCCCCNc1nc(Nc2ccc(CN3CCOCC3)cc2)c2ncn(C3CCC(O)C3)c2n1 (configuration not stated)
GI50 [1]: 0.036 µM
GI50 [2]: 3.23 µM
GI50 [7]: 2.23 µM
GI50 at 72 h [3]: 5.51 µM
GI50 at 72 h [4]: 4.9 µM

Compound: Nc1ccccc1-c1ccc(Nc2nc(N[C@H]3CC[C@H](N)CC3)nc3c2ncn3C2CCCC2)cc1
GI50 [1]: 0.018 µM
GI50 [2]: 0.81 µM
GI50 [7]: 1.07 µM
GI50 at 72 h [3]: 0.677 µM
GI50 at 72 h [4]: 12.5 µM

Compound: N[C@H]1CC[C@H](Nc2nc(Nc3ccccc3CN3CCOCC3)c3ncn(C4CCCC4)c3n2)CC1
RatioGI50 [5]: 7
GI50 [1]: 4.52 µM
IC50 [6]: > 20 µM
GI50 [2]: 22.2 µM
GI50 [7]: 4.11 µM
GI50 at 72 h [3]: 18.1 µM
GI50 at 72 h [4]: 30.4 µM

Compound: N[C@H]1CC[C@H](Nc2nc(Nc3ccc(CN4CCOCC4)cc3)c3ncn(C4CCC(O)C4)c3n2)CC1 (some centres not stated)
GI50 [1]: 0.008 µM
GI50 [2]: 0.801 µM
GI50 [7]: 1.04 µM
GI50 at 72 h [3]: 1.42 µM
GI50 at 72 h [4]: > 40 µM

Compound: OCCCCNc1nc(Nc2ccc(CN3CCOCC3)cc2)c2ncn(C3CCC(O)C3)c2n1 (configuration not stated)
GI50 [1]: 0.162 µM
GI50 [2]: 3.26 µM
GI50 [7]: 3.78 µM
GI50 at 72 h [3]: 6.43 µM
GI50 at 72 h [4]: 26.1 µM

Compound: N[C@H]1CC[C@H](Nc2nc(Nc3ccc(-c4ccccc4O)nc3)c3ncn(C4CCCC4)c3n2)CC1
GI50 [1]: 0.085 µM
GI50 [2]: 0.653 µM
GI50 [7]: 0.5 µM
GI50 at 72 h [3]: 0.617 µM
GI50 at 72 h [4]: 6.35 µM

Compound: N[C@H]1CC[C@H](Nc2nc(Nc3ccc(-c4ccoc4)nc3)c3ncn(C4CCCC4)c3n2)CC1
GI50 [1]: 0.017 µM
GI50 [2]: 0.632 µM
GI50 [7]: 0.876 µM
GI50 at 72 h [3]: 0.619 µM
GI50 at 72 h [4]: 13.1 µM

Compound: NCCCCNc1nc(Nc2ccc(CN3CCOCC3)cc2)c2ncn(CCCO)c2n1
GI50 [1]: 0.138 µM
GI50 [2]: 19 µM
GI50 [7]: 9.37 µM
GI50 at 72 h [3]: 8.2 µM
GI50 at 72 h [4]: 35 µM
